Test results: patent publication US9326971B2, “4-methylpyrazole formulations for inhibiting ethanol intolerance” (Raptor Pharmaceuticals Inc., priority 2004, dated 2016)
Like-named read-outs stand apart in the source and are kept apart here.

Assays:
ethanol elimination rate [1] = assay: Percent reduction in ethanol elimination rate versus dose of 4-MP in human subjects (literature data, FIG. 2); type: in vivo; details: doses of 4 mg/kg 4-MP and less; from linear least squares fit of literature data (FIG. 2)
Text: As used herein, “ethanol elimination rate” refers to the reduction in ethanol concentration in a subject's bloodstream over time after the subject has ingested ethanol. Typically, an ethanol elimination rate can be expressed in terms of millimole ethanol/kilogram subject body mass/hour. Techniques for blood sampling and analysis of ethanol levels in blood are well known to those of skill in the art. See, e.g., Inoue et al., Alcoholism: Clinical and Experimental Research 1984, 8, 319-322, incorporated herein by reference in its entirety. A “percent change in ethanol elimination rate,” can be calculated as follows:
[formula] where EtOH represents ethanol, and a number for a percent change in ethanol elimination that is less than 100 is a reduction in the percent change in EtOH elimination. Blood ethanol levels can also be calculated, for example, based on algorithms utilizing the amount of ethanol consumed by a subject, the subject's body mass, and time period since the consumption of ethanol, or, as another example, blood ethanol levels can be extrapolated from analysis of a subject's breath, and the like, as known to those of skill in the art. […]

[2] = test system: serum acetaldehyde concentration; assay: Blinded, intra-subject controlled single dose study: serum acetaldehyde after oral 4-MP and ethanol in ethanol-intolerant subjects genotyped for ALDH2 and ADH2; type: in vivo, human
Experimental: A blinded, intra-subject controlled, single dose, dose escalation study of 4-MP for mitigation of acetaldehyde related toxicity in subjects with symptoms of inborn altered ethanol metabolism with concomitant ethanol exposure was undertaken.
Twenty-four subjects (n=24) were randomly selected and orally administered 1 mg/kg, 3 mg/kg, or 5 mg/kg of 4-MP, followed 30 minutes later by an oral dose of 20% ethanol ([…]).
Using the same protocol, wherein 4-MP was replaced with placebo, each of the twenty-four randomly selected subjects served as its own control.
The twenty-four randomly selected subjects were then subjected to blood sampling, and the sampled blood analyzed for acetaldehyde levels at select time points following ethanol consumption.
For acetaldehyde analysis, blood samples were prepared by dilution with an internal standard (acetaldehyde-d4), with derivatization of acetaldehyde with dinitrophenyl hydrazine in hydrochloric acid, liquid-liquid portioning and solvent exchange. The derivatization forms an acetaldehyde-dinitrophenyl hydrazine (DNPH) derivative which dramatically increases the boiling point of the molecule and thus its relative stability compared to the acetaldehyde itself (Nagy et al., Rapid Communications in Mass Spectrometry 2004, 18, 2473-2478). The derivatized analytes were separated using a Jones Chromatography (Grace-Vydac), 50 mm×2.1 mm, 3 μm column held in an oven set at 28° C. Two mobile phases were used in a gradient consisting of 30:70 acetonitrile:water versus 90:10 acetonitrile:water with 0.1% formic acid. The derivatized analyte was detected on a High Performance Liquid Chromatograph equipped with a Mass Spectrometer (HPLC/MS/MS). Quantitation was performed using a linear regression curve fit of impurities standards with 1/x weighting, prepared from dilutions of acetaldehyde in water. Samples and standards were injected at 2 μL.
All […] subjects were then genotyped for ALDH2 and ADH2 at the Alcohol Research Center at Indiana University using (i) genomic DNA isolation and (ii) TaqMan assay for allelic discrimination. • i. Genomic DNA isolation: DNA was first isolated using the “HotSHOT” method for isolating PCR quality genomic DNA (Truett et al., Biotechniques 2000, 29(1), 52-54). Briefly, blood blotted on filter paper (3 mm circle) was placed in the well of a 96-well plate and mixed with 75 μL 25 mM NaOH/0.3 mM EDTA solution and heated to 95° C. for 40 minutes, followed by neutralization with 75 μL 40 mM Tris-HCl (pH 5) solution. 1-5 microliters were used for each PCR. • ii. TaqMan Assay for Allelic Discrimination: The allelic discrimination assay used a multiplexed (more than one primer/probe pair per reaction), end-point (data is collected at the end of the PCR process) assay. Each assay mix contained two different TaqMan probes (Applied BioSystems, Foster City, Calif.), labeled with VIC or FAM fluorescent reporter dye, which bound preferentially to one of the alleles. The genotype of each sample was determined by the fluorescence levels of the reporter dyes and was clustered on a graph with other samples of the same genotype. Each reaction contained 5 μL of 2×TaqMan Universal PCR Masternix, No AmpErase UNG, 3.75 μL of water, 0.25 μL of 40× Assay Mix, and 1 μL of DNA sample. Eight or eleven controls were included on each 96-well plate: two no template controls, two or three heterozygous samples, and two or three of each of the homozygous samples. Thermocycling was carried out in MJ Research PTC-200 thermocyclers. The PCR products were then analyzed in an ABI PRISM® 7300 Sequence Detection System (SDS) instrument. SDS Software 1.3.1 converted the raw data to pure dye components and plotted the results of the allelic discrimination on a scatter plot of Allele X versus Allele Y (e.g., ADH2*1 versus ADH2*2); each genotype appeared on the graph as a cluster of points. […]

ethanol elimination rate [3] = details: human subjects, cited from earlier work
[4] = all subjects with reduced or absent ALDH2 activity, 1, 3 or 5 mg/kg 4-MP
[5] = reduced ALDH2 activity, ADH2*1/ADH2*1 or ADH2*1/ADH2*2, 1 mg/kg 4-MP
[6] = reduced or absent ALDH2 activity, ADH2*2/ADH2*2, 1 mg/kg 4-MP

Cc1cn[nH]c1 [4-MP, 4-methylpyrazole]
reduction in ethanol elimination (ethanol elimination rate [1]): less than 10% | Cmax mean and AUC0-8H mean of acetaldehyde concentration in the blood, versus absence of 4-MP (in words) [2, 4]: not significantly reduced | peak mean acetaldehyde concentration in the blood due to drinking ethanol (FIG. 5), versus placebo [2, 4]: not reduced | Cmax mean and AUC0-8H mean of acetaldehyde concentration in the blood, versus absence of 4-MP (in words) [2, 5]: significantly reduced | peak mean acetaldehyde concentration in the blood due to drinking ethanol (FIG. 3), versus placebo [2, 5]: can be reduced | Cmax mean and AUC0-8H mean of acetaldehyde concentration in the blood, versus absence of 4-MP (in words) [2, 6]: not significantly reduced | peak mean acetaldehyde concentration in the blood due to drinking ethanol (FIG. 4), versus placebo [2, 6]: not reduced | reduction in EtOH elimination (ethanol elimination rate [3]; 6 mg 4-MP per kilogram body weight, Lindros et al. 1981): 20% | reduction in EtOH elimination (ethanol elimination rate [3]; 8.5 mg 4-MP per kilogram body weight, Inoue et al. 1985): 12% | reduction in EtOH elimination (ethanol elimination rate [3]; 10 mg 4-MP per kilogram body weight, Inoue et al. 1984): 20% | reduction in EtOH elimination (ethanol elimination rate [3]; 12.5 mg 4-MP per kilogram body weight, Sarkola et al. 2002): 34%
